Assay results as given in patent US8357694B2, “Substituted 5,6-dihydro-6-phenylbenzo[F]isoquinolin-2-amine compounds” (ArQule, Inc., priority 2008, dated 2013).
Structures can show the parent of a compound that is named as a salt.

System: not given
Assay: not given
Conditions: not given
In the case of `CN(CCc1ccc(Nc2ncc3c(n2)-c2ccccc2[C@H](c2ccc(F)c(F)c2)C3)cc1)C1CCCCC1` (as salt: hydrochloride) [Example 85, (S)—N-(4-(2-(cyclohexyl(methyl)amino)ethyl)phenyl)-6-(3,4-difluorophenyl)-5,6-dihydrobenzo[h]quinazolin-2-amine hydrochloride], the melting point is reported as 96 to 98 °C.
`COCCNCc1cccc(Nc2ncc3c(n2)-c2ccccc2[C@H](c2ccccc2F)C3)c1` (as salt: HCl) [Example 158, (R)-6-(2-fluorophenyl)-N-(3-((2-methoxyethylamino)methyl)phenyl)-5,6-dihydrobenzo[h]quinazolin-2-amine] gave a melting point of 139 to 147 °C.
`Nc1ncc2c(n1)-c1ccccc1[C@@H](c1ccc(Cl)c(Cl)c1)C2` gave a melting point of 159 to 160 °C.
Compound `CN(CCc1ccc(Nc2ncc3c(n2)-c2ccccc2C(c2ccc(Cl)c(Cl)c2)C3)cc1)C1CCCCC1` (stereo not drawn) [Example 30, N-(4-(2-(cyclohexyl(methyl)amino)ethyl)phenyl)-6-(3,4-dichlorophenyl)-5,6-dihydrobenzo[h]quinazolin-2-amine] has a melting point of 130 to 131 °C.
Compound `CN(CCc1ccc(Nc2ncc3c(n2)-c2ccccc2[C@H](c2cccc(Br)c2)C3)cc1)C1CCCCC1` (as salt: hydrochloride) [Example 79, (S)-6-(3-bromophenyl)-N-(4-(2-(cyclohexyl(methyl)amino)ethyl)phenyl)-5,6-dihydrobenzo[h]quinazolin-2-amine hydrochloride] has a melting point of 167 to 172 °C.
`COCCN1CCN(CCc2ccc(Nc3ncc4c(n3)-c3ccccc3C(c3ccccc3C(F)(F)F)C4)cc2)CC1` (stereo not drawn) [Example 69, N-(4-(2-(4-(2-methoxyethyl)piperazin-1-yl)ethyl)phenyl)-6-(2-(trifluoromethyl)phenyl)-5,6-dihydrobenzo[h]quinazolin-2-amine] showed a melting point of 139 to 140 °C.
For `Nc1ncc2c(n1)-c1ccccc1[C@H](c1ccccc1F)C2` (as salt: hydrochloride) [Example 24, (R)-6-(2-fluorophenyl)-5,6-dihydrobenzo[h]quinazolin-2-amine], the melting point was 154 to 155 °C.
Compound `Clc1ccc(C2Cc3cnc(Nc4ccc(CCN5CCOCC5)cc4)nc3-c3ccccc32)cc1Cl` (stereo not drawn) [Example 50, 6-(3,4-dichlorophenyl)-N-(4-(2-morpholinoethyl)phenyl)-5,6-dihydrobenzo[h]quinazolin-2-amine] has a melting point of 180 to 181 °C.
`COCCN1CCN(CCc2ccc(Nc3ncc4c(n3)-c3ccccc3[C@@H](c3ccccc3Cl)C4)cc2)CC1` (as salt: hydrochloride) gave a melting point of 143 to 145 °C.
Compound `COCCN1CCN(CCc2ccc(Nc3ncc4c(n3)-c3ccccc3C(c3cccc(Br)c3)C4)cc2)CC1` (stereo not drawn) [Example 32, 6-(3-bromophenyl)-N-(4-(2-(4-(2-methoxyethyl)piperazin-1-yl)ethyl)phenyl)-5,6-dihydrobenzo[h]quinazolin-2-amine] has a melting point of 105 to 107 °C.
With `CN1CCN(CCc2cccc(Nc3ncc4c(n3)-c3ccccc3[C@H](c3ccccc3F)C4)c2)CC1` (as salt: hydrochloride) [Example 161, (R)-6-(2-fluorophenyl)-N-(3-(2-(4-methylpiperazin-1-yl)ethyl)phenyl)-5,6-dihydrobenzo[h]quinazolin-2-amine hydrochloride] the melting point was 182 to 186 °C.
Work on `Brc1cccc(C2Cc3cnc(Nc4ccc(CCNCCN5CCCC5)cc4)nc3-c3ccccc32)c1` (stereo not drawn) [Example 47, 6-(3-bromophenyl)-N-(4-(2-(2-(pyrrolidin-1-yl)ethylamino)ethyl)phenyl)-5,6-dihydrobenzo[h]quinazolin-2-amine] yielded a melting point of 83 to 85 °C.
With `CC(C)c1ccc2c(c1)C(c1ccc(Cl)c(Cl)c1)Cc1cnc(N)nc1-2` (stereo not drawn) [Example 20, 6-(3,4-dichlorophenyl)-8-isopropyl-5,6-dihydrobenzo[h]quinazolin-2-amine] the melting point was 174 to 176 °C.
In the case of `Nc1ncc2c(n1)-c1ccc(-c3ccccc3)cc1C(c1ccc(Cl)c(Cl)c1)C2` (stereo not drawn) [Example 21, 6-(3,4-dichlorophenyl)-8-phenyl-5,6-dihydrobenzo[h]quinazolin-2-amine], the melting point is reported as 186 to 187 °C.
Work on `COCCN1CCN(CCc2ccc(Nc3ncc4c(n3)-c3ccccc3[C@H](c3ccc(F)cc3)C4)cc2)CC1` [Example 100, (S)-6-(4-fluorophenyl)-N-(4-(2-(4-(2-methoxyethyl)piperazin-1-yl)ethyl)phenyl)-5,6-dihydrobenzo[h]quinazolin-2-amine] yielded a melting point of 195 to 198 °C.
With `CC(O)CN(CCc1ccc(Nc2ncc3c(n2)-c2ccccc2C(c2cccc(Br)c2)C3)cc1)Cc1ccccc1` (stereo not drawn) [Example 39, 1-(benzyl(4-(6-(3-bromophenyl)-5,6-dihydrobenzo[h]quinazolin-2-ylamino)phenethyl)amino)propan-2-ol] the melting point was 90 to 92 °C.
With `CCCCN(C)CCc1ccc(Nc2ncc3c(n2)-c2ccccc2[C@H](c2ccc(F)c(F)c2)C3)cc1` (as salt: hydrochloride) [Example 89, (S)—N-(4-(2-(butyl(methyl)amino)ethyl)phenyl)-6-(3,4-difluorophenyl)-5,6-dihydrobenzo[h]quinazolin-2-amine hydrochloride] the melting point was 130 to 132 °C.
Compound `Brc1ccc([C@H]2Cc3cnc(Nc4ccc(CCN5CCCCC5)cc4)nc3-c3ccccc32)cc1` (as salt: hydrochloride) [Example 108, (R)-6-(4-bromophenyl)-N-(4-(2-(piperidin-1-yl)ethyl)phenyl)-5,6-dihydrobenzo[h]quinazolin-2-amine hydrochloride salt] has a melting point of 170 to 175 °C.
Compound `Clc1ccc([C@H]2Cc3cnc(Nc4ccc(CCN5CCOCC5)cc4)nc3-c3ccccc32)cc1Cl` [Example 51, (R)-6-(3,4-dichlorophenyl)-N-(4-(2-morpholinoethyl)phenyl)-5,6-dihydrobenzo[h]quinazolin-2-amine] has a melting point of 166 to 167 °C.
In the case of `CCCCN(C)CCc1cc(Nc2ncc3c(n2)-c2ccccc2[C@H](c2ccccc2F)C3)ccc1F` (as salt: hydrochloride) [Example 172, (R)—N-(3-(2-(butyl(methyl)amino)ethyl)-4-fluorophenyl)-6-(2-fluorophenyl)-5,6-dihydrobenzo[h]quinazolin-2-amine hydrochloride salt], the melting point is reported as 125 to 130 °C.
For `COCCN1CCN(CCc2ccc(Nc3ncc4c(n3)-c3ccccc3[C@H](c3ccccc3F)C4)cc2)CC1` (as salt: hydrochloride) [Example 66, (R)-6-(2-fluorophenyl)-N-(4-(2-(4-(2-methoxyethyl)piperazin-1-yl)ethyl)phenyl)-5,6-dihydrobenzo[h]quinazolin-2-amine hydrochloride], the melting point was 212 to 216 °C.
`CCCCN(C)CCc1ccc(Nc2ncc3c(n2)-c2ccccc2[C@H](c2ccc(Cl)c(Cl)c2)C3)cc1` (as salt: hydrochloride) [Example 105, (S)—N-(4-(2-(butyl(methyl)amino)ethyl)phenyl)-6-(3,4-dichlorophenyl)-5,6-dihydrobenzo[h]quinazolin-2-amine hydrochloride salt] showed a melting point of 135 to 145 °C.

System: SNU-16
Assay: MTS assay, SNU-16
Assay type: cell-based
Conditions: Homo sapiens, SNU-16, SNU-16; read-out: MTS cell kill data (IC50-μM) SNU-16
Method: Cells were maintained at 37° C., 5% CO2 in DMEM media supplemented with 1% fetal bovine serum, penicillin/streptomycin and fungizone (Invitrogen). Cells were seeded into 96-well tissue culture plates at 3000 per well and cultured at 37° C. for 18 hours. Test compounds were dissolved and diluted to 300× in DMSO then diluted 1:40 in DMEM.
Compound `CN(C)CCc1ccc(Nc2ncc3c(n2)-c2ccccc2[C@H](c2ccc(F)c(F)c2)C3)cc1` [Example 87, (S)-6-(3,4-difluorophenyl)-N-(4-(2-(dimethylamino)ethyl)phenyl)-5,6-dihydrobenzo[h]quinazolin-2-amine hydrochloride] has an IC50 of 7.78 µM.
For `CN1CCN(CCc2ccc(Nc3ncc4c(n3)-c3ccccc3[C@H](c3ccc(F)c(F)c3)C4)cc2)CC1` [Example 88, (S)-6-(3,4-difluorophenyl)-N-(4-(2-(4-methylpiperazin-1-yl)ethyl)phenyl)-5,6-dihydrobenzo[h]quinazolin-2-amine hydrochloride], the IC50 was 9.86 µM.
For `CN(CCc1ccc(Nc2ncc3c(n2)-c2ccccc2[C@H](c2ccc(Cl)c(Cl)c2)C3)cc1)C1CCCCC1` [Example 106, (S)-N-(4-(2-(cyclohexyl(methyl)amino)ethyl)phenyl)-6-(3,4-dichlorophenyl)-5,6-dihydrobenzo[h]quinazolin-2-amine hydrochloride salt], the IC50 was 3.05 µM.
`Clc1ccc([C@@H]2Cc3cnc(Nc4cccc(CCN5CCCCC5)c4)nc3-c3ccccc32)cc1Cl` [Example 167, (S)-6-(3,4-dichlorophenyl)-N-(3-(2-(piperidin-1-yl)ethyl)phenyl)-5,6-dihydrobenzo[h]quinazolin-2-amine hydrochloride] gave an IC50 of 4.21 µM.
`Brc1cccc([C@@H]2Cc3cnc(Nc4ccc(CCN5CCCCC5)cc4)nc3-c3ccccc32)c1` [Example 78, (S)-6-(3-bromophenyl)-N-(4-(2-(piperidin-1-yl)ethyl)phenyl)-5,6-dihydrobenzo[h]quinazolin-2-amine hydrochloride] gave an IC50 of 4.85 µM.
Compound `COCCN1CCN(CCc2ccc(Nc3ncc4c(n3)-c3ccccc3[C@@H](c3ccc(F)c(F)c3)C4)cc2)CC1` [Example 90, (R)-6-(3,4-difluorophenyl)-N-(4-(2-(4-(2-methoxyethyl)piperazin-1-yl)ethyl)phenyl)-5,6-dihydrobenzo[h]quinazolin-2-amine hydrochloride] has an IC50 of 14.6 µM.
In the case of `CN(CCc1ccc(Nc2ncc3c(n2)-c2ccccc2[C@H](c2ccc(F)c(F)c2)C3)cc1)C1CCCCC1` [Example 85, (S)-N-(4-(2-(cyclohexyl(methyl)amino)ethyl)phenyl)-6-(3,4-difluorophenyl)-5,6-dihydrobenzo[h]quinazolin-2-amine hydrochloride], the IC50 is reported as 3.88 µM.
Work on `COCCN1CCN(CCc2ccc(Nc3ncc4c(n3)-c3ccccc3[C@H](c3ccc(Br)cc3)C4)cc2)CC1` [Example 97, (S)-6-(4-bromophenyl)-N-(4-(2-(4-(2-methoxyethyl)piperazin-1-yl)ethyl)phenyl)-5,6-dihydrobenzo[h]quinazolin-2-amine hydrochloride salt] yielded an IC50 of 4.2 µM.
`CCCCN(C)CCc1ccc(Nc2ncc3c(n2)-c2ccccc2[C@H](c2ccc(F)cc2)C3)cc1` [Example 99, (S)-N-(4-(2-(butyl(methyl)amino)ethyl)phenyl)-6-(4-fluorophenyl)-5,6-dihydrobenzo[h]quinazolin-2-amine] gave an IC50 of 6.16 µM.
In the case of `Fc1ccc([C@H]2Cc3cnc(Nc4ccc(CCN5CCCCC5)cc4)nc3-c3ccccc32)cc1F` [Example 91, (R)-6-(3,4-difluorophenyl)-N-(4-(2-(piperidin-1-yl)ethyl)phenyl)-5,6-dihydrobenzo[h]quinazolin-2-amine hydrochloride], the IC50 is reported as 6.32 µM.
Work on `COCCN1CCN(CCc2ccc(Nc3ncc4c(n3)-c3ccccc3[C@H](c3ccc(F)cc3)C4)cc2)CC1` [Example 100, (S)-6-(4-fluorophenyl)-N-(4-(2-(4-(2-methoxyethyl)piperazin-1-yl)ethyl)phenyl)-5,6-dihydrobenzo[h]quinazolin-2-amine] yielded an IC50 of 7.36 µM.
